In one assay the test system is parainfluenza (hPIV3). In kind it is cell-based, human parainfluenza virus.
Another assay has as its system rhinovirus (RV16). In kind it is cell-based, human rhinovirus.
Assay [1] has as its system Influenza A/Panama/2007/99. Put plainly: Influenza infection of normal human bronchial epithelial (NHBE) cells, viral titer by TCID50. The format is cell-based, Influenza A (H3N2). The conditions noted are these: for Effect of TRPV4 agonist on influenza replication in NHBE cells: agonist 1 μM one hour prior to infection and reapplied 3 h after, compared to PBS control.
The test system of assay [2] is Influenza A/Panama/2007/99. In kind it is cell-based. The conditions noted are these: for Effect of TRP channel antagonist on 8×Ca:Na formulation-mediated reduction of influenza infection: Calu-3 cells pretreated with antagonist (RR 1 μM, SKF96365 10 μM, RN1734 1-100 μM), then 8×Ca:Na formulation.
The mark [3] stands for this setting: Calu-3 cells, treatment alone, compared to untreated control.
Where [4] appears, read: reduction of influenza infection, TCID50 24 h after infection.
[5] abbreviates: reduction of influenza infection, agonist applied apically 1 h before and again 3 h after infection, titer 24 h after infection.
[6] abbreviates: Calu-3 cells pretreated with ruthenium red 1 μM, then 8×Ca:Na formulation.

From US20130203715A1, “USE OF TRP CHANNEL AGONISTS TO TREAT INFECTIONS” (Pulmatrix, Inc., priority 2010, published 2013) come the findings set out here.

SMILES strings stand for the structures. Read-outs that look alike come from different tables or passages of the source.

Take `CCCCCCCCCC(=O)O[C@@H]1[C@@H](C)[C@@]2(O)[C@@H](C=C(CO)C[C@@]3(O)C(=O)C(C)=C[C@@H]23)[C@@H]2C(C)(C)[C@]12OC(=O)CCCCCCCCC` [4αPDD, 4α-Phorbol 12,13-didecanoate]: the “Effect on parainfluenza infection of Calu-3 cells” value with parainfluenza (hPIV3) (Calu-3 cells, hPIV3, compared to untreated control) is “able to reduce”. In addition, in the assay on rhinovirus (RV16) (Calu-3 cells, RV16, compared to untreated control), the “Effect on rhinovirus infection of Calu-3 cells” value is on record as “able to reduce”. For the same compound, in assay [1], the “Effect of TRPV4 agonist on influenza replication in NHBE cells” value is “reduced influenza replication”. Further, in assay [2], the Active concentrations is -9 to -5 M, the “Effect on influenza infection (viral titer) of Calu-3 cells” value (“Effect on influenza infection” below) is reported as “reduces influenza infection” and the “Max reduction in titer (Log10)” value is recorded as 2.9 Log10.
Take `COc1cc(CNC(=O)CCCC/C=C/C(C)C)ccc1O` [Capsacin]: in assay [2], the Active concentrations is -8 to -4 M and the “Max reduction in titer (Log10)” value is given as 2.2 Log10.
For the compound `Cc1ccc(C(C)C)cc1O` [Carvacrol], in assay [2], the Active concentrations was −6.5 to −4M^ and the “Max reduction in titer (Log10)” value turned out to be 3 Log10. In addition, the “Effect on influenza infection” value in assay [2] (setting [3]) is on record as “reduced influenza titer in a dose responsive manner”.
`O=C(O)c1ccccc1Nc1cccc(C(F)(F)F)c1` [Flufenamic acid]: the “Effect on influenza infection” value in assay [2] (setting [3]) is recorded as “reduced influenza titer in a dose responsive manner”. For the same compound, the “Max reduction in titer (Log10)” value in assay [2] (setting [4]) was found to be 2.5 Log10. Besides, the Active concentrations in assay [2] (setting [5]) is -6 to -4 M.
On to `CC(C)C[C@H](NC(=O)c1cc2ccccc2s1)C(=O)N1CCN(C(=O)[C@H](CO)NS(=O)(=O)c2ccc(Cl)cc2Cl)CC1` [GSK1016790A], for which the “Effect of TRPV4 agonist on influenza replication in NHBE cells” value in assay [1] was “reduced influenza replication”. In addition, in assay [2], the Active concentrations was -11 to -6 M and the “Max reduction in titer (Log10)” value stood at 5.0 Log10. Moreover, the “Effect on influenza infection” value in assay [2] (setting [3]) was “reduces influenza infection in a dose-dependent manner”. Besides, in assay [2] (Calu-3 cells, treatment alone, compared to untreated control, listed as GSK10168790), the “Effect on influenza infection” value is listed as “the highest level of anti-viral efficacy in a dose-dependent manner”.
For the compound `O=C1NC(c2cccc([N+](=O)[O-])c2)=CCN1c1ccccc1O` [Icilin], the “Effect on influenza infection” value in assay [2] (setting [3]) is given as “small, but measurable reduction of influenza titer”. The “Max reduction in titer (Log10)” value in assay [2] (setting [4]) was determined as 1 Log10. In addition, the Active concentrations in assay [2] (setting [5]) is -6 to -4 M.
In the case of `CC1CCC(C(C)C)C(O)C1` (centres unmarked) [Menthol], the “Effect on influenza infection” value in assay [2] (setting [3]) is “reduced influenza titer in a dose responsive manner”. The “Max reduction in titer (Log10)” value in assay [2] (setting [4]) is on record as 2.5 Log10. This compound returned an Active concentrations in assay [2] (setting [5]) of -7 to -4 M.
As for `CC(C)NCCN(C(C)C)S(=O)(=O)c1ccc(Cl)cc1Cl` [RN1734], in assay [2], the “Effect of TRP channel antagonist on 8×Ca:Na formulation-mediated reduction of influenza infection” value is “inhibited the 8×Ca:Na formulation-mediated reduction of influenza infection in a dose dependent manner”.
Regarding `O=[N+]([O-])c1cc(Cl)ccc1S(=O)(=O)N1CCN(Cc2ccccc2)CC1` [RN1747], in assay [2], the Active concentrations was -8 to -4 M and the “Max reduction in titer (Log10)” value is reported as 2.3 Log10. The “Effect on influenza infection” value in assay [2] (setting [3]) was “reduces influenza infection in a dose-dependent manner”.
As for `C=C(C)[C@]12C[C@@H](C)[C@@]34O[C@](Cc5ccccc5)(O[C@@H]1[C@@H]3C=C(COC(=O)Cc1ccc(O)c(OC)c1)C[C@]1(O)C(=O)C(C)=C[C@@H]41)O2` [Resiniferatoxin], in assay [2], the Active concentrations was -6 to -4 M and the “Max reduction in titer (Log10)” value is given as 3.3 Log10.
Consider `N.N.N.N.N.N.N.N.N.N.N.N.N.N.[Cl-].[Cl-].[Cl-].[Cl-].[Cl-].[Cl-].[O-2].[O-2].[Ru+3].[Ru+3].[Ru+4]` [Ruthenium Red], for which the “Effect of antagonist on 8×Ca:Na formulation efficacy against parainfluenza” value in the assay with parainfluenza (hPIV3) (setting [6]) is recorded as “the efficacy of the 8× treatment was reduced”. For the same compound, the “Effect of antagonist on 8×Ca:Na formulation efficacy against rhinovirus” value in the assay with rhinovirus (RV16) (setting [6]) is “the efficacy of the 8× treatment was reduced”. In addition, the “Effect of antagonist on 8×Ca:Na formulation anti-viral action in NHBE cells” value in assay [1] (ruthenium red 1 μM before 8×Ca:Na formulation) is recorded as “blocked the anti-viral action of the Ca:Na formulation”. For the same compound, in assay [2] (Calu-3 cells pre-treated with ruthenium red 1 μM, then dry powder Formulation I), the “Effect of antagonist on Formulation I reduction of influenza viral titer” value is given as “attenuated”. Also, the “Effect of antagonist on Formulation II reduction of influenza infection” value in assay [2] (Calu-3 cells pre-treated with ruthenium red 1 μM, then dry powder Formulation II) is “attenuated”. For the same compound, the “Effect of TRP channel antagonist on 8×Ca:Na formulation-mediated reduction of influenza infection” value in assay [2] is recorded as “the effect on viral infection was reduced to levels comparable to the untreated control cells”.
For the compound `COc1ccc(CCCOC(Cn2ccnc2)c2ccc(OC)cc2)cc1` (centres unmarked) [SKF96365], the “Effect of TRP channel antagonist on 8×Ca:Na formulation-mediated reduction of influenza infection” value in assay [2] is given as “the effect on viral infection was reduced to levels comparable to the untreated control cells”.
